The text below walks through data of ChEMBL document CHEMBL4725342, “Design, synthesis and structure-activity relationship study of piperazinone-containing thieno[3,2-d]pyrimidine derivatives as new PI3Kδ inhibitors” (Bioorg Med Chem Lett, 2020).

For orientation: IC50 means the concentration needed to halve the response being measured.

For assay [1], the target named is T1, Phosphatidylinositol 4,5-bisphosphate 3-kinase catalytic subunit delta isoform (Homo sapiens, UniProt O00329).
T1 sequence (O00329 whole entry): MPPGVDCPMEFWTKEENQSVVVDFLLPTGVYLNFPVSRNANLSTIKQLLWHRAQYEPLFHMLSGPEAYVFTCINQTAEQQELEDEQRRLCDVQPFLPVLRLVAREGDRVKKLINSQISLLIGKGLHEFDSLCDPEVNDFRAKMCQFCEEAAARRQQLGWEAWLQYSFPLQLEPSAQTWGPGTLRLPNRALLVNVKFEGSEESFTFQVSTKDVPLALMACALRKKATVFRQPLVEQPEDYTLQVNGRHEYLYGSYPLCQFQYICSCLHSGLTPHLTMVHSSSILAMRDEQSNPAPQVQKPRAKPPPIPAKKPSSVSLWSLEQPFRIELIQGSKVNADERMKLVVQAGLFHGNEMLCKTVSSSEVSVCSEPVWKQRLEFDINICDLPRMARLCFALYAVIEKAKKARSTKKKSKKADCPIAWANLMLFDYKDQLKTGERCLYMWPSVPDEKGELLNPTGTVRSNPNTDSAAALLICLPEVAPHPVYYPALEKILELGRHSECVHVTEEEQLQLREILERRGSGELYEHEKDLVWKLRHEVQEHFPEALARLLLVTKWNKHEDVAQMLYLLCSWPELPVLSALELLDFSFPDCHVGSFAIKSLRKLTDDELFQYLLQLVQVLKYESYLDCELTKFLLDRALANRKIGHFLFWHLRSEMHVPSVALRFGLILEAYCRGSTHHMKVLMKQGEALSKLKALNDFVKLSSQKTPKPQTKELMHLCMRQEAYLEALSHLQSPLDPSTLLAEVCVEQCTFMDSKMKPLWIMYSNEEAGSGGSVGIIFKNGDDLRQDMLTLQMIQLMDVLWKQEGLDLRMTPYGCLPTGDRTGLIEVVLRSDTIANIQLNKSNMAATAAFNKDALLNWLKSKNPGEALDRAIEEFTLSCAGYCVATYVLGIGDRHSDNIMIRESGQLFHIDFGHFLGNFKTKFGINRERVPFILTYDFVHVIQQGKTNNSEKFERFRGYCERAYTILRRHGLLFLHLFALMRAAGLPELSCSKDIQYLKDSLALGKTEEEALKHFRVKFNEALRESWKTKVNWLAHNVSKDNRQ
The assay is described as follows: Inhibition of PI3Kdelta (unknown origin).

The species entered for assay [2] is Homo sapiens. Briefly: Selectivity index, ratio of IC50 for PI3Kalpha (unknown origin) to IC50 for PI3Kdelta (unknown origin).
For assay [3], the target named is Phosphatidylinositol 4,5-bisphosphate 3-kinase catalytic subunit beta isoform (Homo sapiens, UniProt P42338). The assay is described as follows: Inhibition of PI3Kbeta (unknown origin).
Assay [4] relates to OCI-Ly3. Briefly: Antiproliferative activity against human OCILY3 assessed as reduction in cell growth by MTS assay. The format is functional, cell-based. Background: Formazan colour is commonly taken as a measure of viable cells.
Assay [5] concerns HEK293. Briefly: Cytotoxicity against human HEK293 cells assessed as reduction in cell viability by MTS assay. The format is cell-based.
For assay [6], the system named is SU-DHL-6. The assay is described as follows: Antiproliferative activity against human SU-DHL-6 assessed as reduction in cell growth by MTS assay. It counts as functional, cell-based.
In assay [7] the test system is JeKo-1. The assay is described as follows: Antiproliferative activity against human JeKo-1 assessed as reduction in cell growth by MTS assay. It counts as functional, cell-based.
Assay [8] has as its system OCI-Ly10. Briefly: Antiproliferative activity against human OCILY10 assessed as reduction in cell growth by MTS assay. It counts as functional, cell-based.
For assay [9], the target named is Phosphatidylinositol 4,5-bisphosphate 3-kinase catalytic subunit gamma isoform (Homo sapiens, UniProt P48736). Briefly: Inhibition of PI3Kgamma (unknown origin).
The test system of assay [10] is Vero. The assay is described as follows: Cytotoxicity against monkey Vero cells assessed as reduction in cell viability by MTS assay. It counts as cell-based. Particulars: Chlorocebus sabaeus.
Assay [11] relates to L02. Briefly: Cytotoxicity against human L02 cells assessed as reduction in cell viability by MTS assay. The format is cell-based.
Assay [12] deals with Phosphatidylinositol 4,5-bisphosphate 3-kinase catalytic subunit alpha isoform (Homo sapiens, UniProt P42336). Briefly: Inhibition of PI3Kalpha (unknown origin).
Phosphatidylinositol 4,5-bisphosphate 3-kinase catalytic subunit alpha isoform, sequence (P42336 whole entry, canonical isoform): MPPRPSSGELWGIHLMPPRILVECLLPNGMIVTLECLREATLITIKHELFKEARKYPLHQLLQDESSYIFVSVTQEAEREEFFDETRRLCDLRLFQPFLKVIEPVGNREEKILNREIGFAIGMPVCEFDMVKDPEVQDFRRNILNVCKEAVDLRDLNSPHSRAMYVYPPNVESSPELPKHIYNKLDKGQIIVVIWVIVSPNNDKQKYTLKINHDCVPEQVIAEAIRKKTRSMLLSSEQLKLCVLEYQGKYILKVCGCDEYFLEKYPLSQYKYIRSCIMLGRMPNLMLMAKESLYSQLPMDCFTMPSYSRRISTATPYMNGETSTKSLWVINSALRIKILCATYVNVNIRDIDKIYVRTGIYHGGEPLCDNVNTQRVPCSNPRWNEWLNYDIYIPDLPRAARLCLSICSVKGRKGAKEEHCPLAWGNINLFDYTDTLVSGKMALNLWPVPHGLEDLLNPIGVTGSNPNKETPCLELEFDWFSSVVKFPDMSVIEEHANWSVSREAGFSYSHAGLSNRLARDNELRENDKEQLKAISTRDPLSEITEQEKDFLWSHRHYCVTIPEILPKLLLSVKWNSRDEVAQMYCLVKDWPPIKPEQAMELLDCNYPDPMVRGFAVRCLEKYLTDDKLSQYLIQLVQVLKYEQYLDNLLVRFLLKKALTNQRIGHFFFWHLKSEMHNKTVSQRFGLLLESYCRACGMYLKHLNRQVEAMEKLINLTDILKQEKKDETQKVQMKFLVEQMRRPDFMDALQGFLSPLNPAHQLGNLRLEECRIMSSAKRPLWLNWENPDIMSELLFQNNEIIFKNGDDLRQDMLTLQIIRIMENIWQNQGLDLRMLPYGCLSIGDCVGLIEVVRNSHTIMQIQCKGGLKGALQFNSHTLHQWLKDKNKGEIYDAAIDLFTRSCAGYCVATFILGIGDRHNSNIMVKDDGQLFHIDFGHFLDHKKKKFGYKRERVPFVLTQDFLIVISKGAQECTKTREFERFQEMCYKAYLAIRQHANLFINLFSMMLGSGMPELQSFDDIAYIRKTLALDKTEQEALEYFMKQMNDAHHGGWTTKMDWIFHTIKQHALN

Phosphatidylinositol 4,5-bisphosphate 3-kinase catalytic subunit beta isoform, sequence (P42338 whole entry, canonical isoform): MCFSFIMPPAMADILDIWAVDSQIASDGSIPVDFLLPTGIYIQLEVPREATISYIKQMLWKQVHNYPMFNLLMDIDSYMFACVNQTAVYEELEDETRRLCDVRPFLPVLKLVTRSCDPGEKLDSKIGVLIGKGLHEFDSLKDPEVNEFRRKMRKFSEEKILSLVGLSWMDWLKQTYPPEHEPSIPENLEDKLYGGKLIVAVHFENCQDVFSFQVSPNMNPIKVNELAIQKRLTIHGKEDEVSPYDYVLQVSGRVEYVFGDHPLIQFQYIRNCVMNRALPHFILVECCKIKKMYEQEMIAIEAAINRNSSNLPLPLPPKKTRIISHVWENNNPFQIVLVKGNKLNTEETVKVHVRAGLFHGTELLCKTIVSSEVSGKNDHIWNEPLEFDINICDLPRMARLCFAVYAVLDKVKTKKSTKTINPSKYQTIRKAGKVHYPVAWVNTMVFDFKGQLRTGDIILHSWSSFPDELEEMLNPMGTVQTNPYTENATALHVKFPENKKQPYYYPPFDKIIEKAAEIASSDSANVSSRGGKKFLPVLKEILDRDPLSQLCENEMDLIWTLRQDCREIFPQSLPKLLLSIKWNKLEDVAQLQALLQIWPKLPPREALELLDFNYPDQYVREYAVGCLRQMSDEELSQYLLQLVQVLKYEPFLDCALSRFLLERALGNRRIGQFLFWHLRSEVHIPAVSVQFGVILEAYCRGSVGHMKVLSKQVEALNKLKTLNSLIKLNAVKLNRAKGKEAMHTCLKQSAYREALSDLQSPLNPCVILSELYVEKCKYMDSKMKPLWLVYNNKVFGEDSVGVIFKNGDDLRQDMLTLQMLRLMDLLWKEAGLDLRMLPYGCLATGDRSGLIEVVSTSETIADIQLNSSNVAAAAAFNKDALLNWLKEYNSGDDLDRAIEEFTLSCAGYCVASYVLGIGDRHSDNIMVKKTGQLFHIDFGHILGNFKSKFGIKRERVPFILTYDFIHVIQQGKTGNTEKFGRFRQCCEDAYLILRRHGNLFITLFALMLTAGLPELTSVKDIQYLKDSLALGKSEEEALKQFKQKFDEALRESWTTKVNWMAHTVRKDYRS
Phosphatidylinositol 4,5-bisphosphate 3-kinase catalytic subunit gamma isoform, sequence (P48736 whole entry, canonical isoform): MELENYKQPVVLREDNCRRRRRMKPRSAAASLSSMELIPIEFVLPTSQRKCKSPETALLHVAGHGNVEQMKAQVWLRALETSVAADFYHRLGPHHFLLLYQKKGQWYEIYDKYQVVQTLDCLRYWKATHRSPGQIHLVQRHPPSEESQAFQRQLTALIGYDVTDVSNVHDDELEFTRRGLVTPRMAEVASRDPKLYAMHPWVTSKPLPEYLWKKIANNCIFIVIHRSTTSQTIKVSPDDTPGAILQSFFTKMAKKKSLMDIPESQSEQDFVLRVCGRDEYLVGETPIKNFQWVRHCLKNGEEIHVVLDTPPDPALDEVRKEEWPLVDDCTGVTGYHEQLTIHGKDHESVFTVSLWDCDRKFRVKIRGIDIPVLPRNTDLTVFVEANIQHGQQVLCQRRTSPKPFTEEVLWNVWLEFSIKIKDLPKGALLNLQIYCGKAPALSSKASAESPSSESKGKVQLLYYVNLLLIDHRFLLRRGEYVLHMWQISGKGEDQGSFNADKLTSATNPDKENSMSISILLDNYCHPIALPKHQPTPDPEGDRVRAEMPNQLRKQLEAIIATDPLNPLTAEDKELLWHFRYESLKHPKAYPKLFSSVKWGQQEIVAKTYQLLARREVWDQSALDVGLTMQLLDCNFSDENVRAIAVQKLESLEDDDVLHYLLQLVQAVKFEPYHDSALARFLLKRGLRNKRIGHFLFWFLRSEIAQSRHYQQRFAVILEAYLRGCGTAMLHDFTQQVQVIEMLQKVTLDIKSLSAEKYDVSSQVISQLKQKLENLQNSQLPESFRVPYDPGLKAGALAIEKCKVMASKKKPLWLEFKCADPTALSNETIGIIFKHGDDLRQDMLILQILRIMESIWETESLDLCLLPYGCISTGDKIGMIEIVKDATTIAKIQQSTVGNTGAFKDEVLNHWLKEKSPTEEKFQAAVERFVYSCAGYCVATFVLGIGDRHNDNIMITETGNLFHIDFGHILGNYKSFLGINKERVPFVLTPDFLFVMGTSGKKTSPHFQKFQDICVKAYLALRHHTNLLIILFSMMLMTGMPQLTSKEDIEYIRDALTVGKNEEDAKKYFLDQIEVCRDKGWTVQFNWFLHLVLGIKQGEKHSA

The molecule `CCc1nc2ccccc2n1-c1nc(N2CCOCC2)c2sc(CN3CCN(C(=O)C4CCCC4)CC3=O)cc2n1` showed a half-maximal inhibitory concentration (IC50) in assay [1] of 2 nM. In addition, in [2], the Ratio IC50 is 95.
Turning to `C=CCN1CCN(Cc2cc3nc(-n4c(CC)nc5ccccc54)nc(N4CCOCC4)c3s2)C(=O)C1`, the concentration for half-maximal inhibition (IC50) in assay [3] was 232 nM; in [4], 8600 nM; in assay [5], more than 20000 nM; in assay [6] it was 570 nM; in assay [7], 470 nM; in [8] it was more than 10000 nM. Also, the IC50 in [9] was 266 nM; in assay [10], more than 20000 nM; in assay [11], more than 20000 nM; in assay [1], 1.6 nM; in assay [12] it was 295 nM.
`CCc1nc2ccccc2n1-c1nc(N2CCOCC2)c2sc(CN3CCN(C4CCC(N5CCCC5)CC4)CC3=O)cc2n1` (stereo not drawn) registered an IC50 in assay [1] of 14 nM. The Ratio IC50 in assay [2] came to 8.
For `CCc1nc2ccccc2n1-c1nc(N2CCOCC2)c2sc(CN3CCN(C4CCC(F)(F)CC4)CC3=O)cc2n1`, in that order: 3.8 nM and 71.
For `CCc1nc2ccccc2n1-c1nc(N2CCOCC2)c2sc(CN3CCN(c4cnn(C)c4)C(=O)C3)cc2n1`, in that order: 3.4 nM and 24.
With `CC[C@H](Nc1ncnc2[nH]cnc12)c1nc2cccc(F)c2c(=O)n1-c1ccccc1` [IDELALISIB], the half-maximal inhibitory concentration (IC50) in assay [4] is 5200 nM; in assay [5] it was more than 20000 nM; in assay [6], 120 nM; in assay [7], 120 nM; in [8] it was more than 10000 nM; in assay [10], more than 20000 nM. In addition, the IC50 in [11] was more than 20000 nM.
`CCc1nc2ccccc2n1-c1nc(N2CCOCC2)c2sc(CN3CCN(C4CCN(C)CC4)CC3=O)cc2n1`: 15 nM corresponded to half-maximal inhibition in [1] (IC50). For the same molecule, the Ratio IC50 in [2] is 25.
Regarding `CCc1nc2ccccc2n1-c1nc(N2CCOCC2)c2sc(CN3CCN(C(=O)OC(C)(C)C)CC3=O)cc2n1`, the 50% inhibitory concentration (IC50) in assay [1] came out at 12 nM. In addition, the Ratio IC50 in assay [2] came out at 52.
For `CCc1nc2ccccc2n1-c1nc(N2CCOCC2)c2sc(CN3CCN(C4CCSCC4)CC3=O)cc2n1`, in that order: 4.8 nM and 56.
For the molecule `CCc1nc2ccccc2n1-c1nc(N2CCOCC2)c2sc(CN3CCN(C4CCC(=O)CC4)CC3=O)cc2n1`, the IC50 in assay [1] turned out to be 1.6 nM.
Consider `CCc1nc2ccccc2n1-c1nc(N2CCOCC2)c2sc(CN3CCN(CC(N)=O)C(=O)C3)cc2n1`, for which the IC50 in [1] was determined as 12 nM. Also, in assay [2], the Ratio IC50 stood at 7.1.
In the same order, the values of `CCc1nc2ccccc2n1-c1nc(N2CCOCC2)c2sc(CN3CCN(C4CCC5(CC4)OCCO5)CC3=O)cc2n1` are 2.2 nM and 13.
For `CCc1nc2ccccc2n1-c1nc(N2CCOCC2)c2sc(CN3CCN([C@H]4CC[C@H](O)CC4)C(=O)C3)cc2n1`, in that order: 2.1 nM and 35.
On to `CCc1nc2ccccc2n1-c1nc(N2CCOCC2)c2sc(CN3CCN(CC4CC4)C(=O)C3)cc2n1`, for which the IC50 in [1] was 2.5 nM. Further, the Ratio IC50 in assay [2] was 49.
For `CCc1nc2ccccc2n1-c1nc(N2CCOCC2)c2sc(CN3CCN(CC(N)=O)CC3=O)cc2n1`, in that order: 6.2 nM and 25.
`CCc1nc2ccccc2n1-c1nc(N2CCOCC2)c2sc(CN3CCN(C)CC3=O)cc2n1`: in assay [1], the midpoint of inhibition, the IC50, lay at 4.5 nM. The Ratio IC50 in assay [2] turned out to be 7.7.
In the same order, the values of `CCc1nc2ccccc2n1-c1nc(N2CCOCC2)c2sc(CN3CCN(c4nccs4)C(=O)C3)cc2n1` are 2.1 nM and 7.7.
In the same order, the values of `CCc1nc2ccccc2n1-c1nc(N2CCOCC2)c2sc(CN3CCN(S(=O)(=O)C4CC4)CC3=O)cc2n1` are 1.2 nM and 38.
The molecule `CCc1nc2ccccc2n1-c1nc(N2CCOCC2)c2sc(CN3CCN(S(C)(=O)=O)CC3)cc2n1` came in with an IC50 in assay [1] of 4.1 nM. Further, the Ratio IC50 in [2] came to 2.4.
In assay [1], `CCc1nc2ccccc2n1-c1nc(N2CCOCC2)c2sc(CN3CCN(C4CCC(N(C)C)CC4)CC3=O)cc2n1` (stereo not drawn) had an IC50 of 14 nM. Also, the Ratio IC50 in assay [2] was 36.
For `CCc1nc2ccccc2n1-c1nc(N2CCOCC2)c2sc(CN3CCN(c4cccnc4)C(=O)C3)cc2n1`, in assay [1], the IC50 was determined as 13 nM. In addition, in assay [2], the Ratio IC50 was 12.
For `CCc1nc2ccccc2n1-c1nc(N2CCOCC2)c2sc(CN3CCN(C(C)=O)CC3=O)cc2n1`, in that order: 3.2 nM and 35.
In the same order, the values of `CCCS(=O)(=O)N1CCN(Cc2cc3nc(-n4c(CC)nc5ccccc54)nc(N4CCOCC4)c3s2)C(=O)C1` are 3.5 nM and 4.
For `CCc1nc2ccccc2n1-c1nc(N2CCOCC2)c2sc(CN3CCN(C4CCCCC4)CC3=O)cc2n1`, in that order: 12 nM and 21.
For `CCc1nc2ccccc2n1-c1nc(N2CCOCC2)c2sc(CN3CCN(C4CCCC4)CC3)cc2n1`, in assay [1], the 50% inhibitory concentration (IC50) was determined as 42 nM. The Ratio IC50 in assay [2] was found to be 31.
In [1], `CCc1nc2ccccc2n1-c1nc(N2CCOCC2)c2sc(CN3CCN(CC4CC4)CC3=O)cc2n1` came in with an IC50 of 6.3 nM. Moreover, the Ratio IC50 in assay [2] is 64.
For `CCc1nc2ccccc2n1-c1nc(N2CCOCC2)c2sc(CN3CCN(S(C)(=O)=O)CC3=O)cc2n1`, in that order: 2.2 nM and 10.
For `CCc1nc2ccccc2n1-c1nc(N2CCOCC2)c2sc(CN3CCN(C4CCOCC4)CC3=O)cc2n1`, in that order: 6.2 nM and 61.
In the same order, the values of `CCc1nc2ccccc2n1-c1nc(N2CCOCC2)c2sc(CN3CCN(C(=O)[C@H](C)O)CC3=O)cc2n1` are 3.6 nM and 49.
`CCc1nc2ccccc2n1-c1nc(N2CCOCC2)c2sc(CN3CCN(S(=O)(=O)C4CC4)CC3)cc2n1` returned a half-maximal inhibitory concentration (IC50) in assay [1] of 4.8 nM. Moreover, the Ratio IC50 in [2] is 13.
For `CCc1nc2ccccc2n1-c1nc(N2CCOCC2)c2sc(CN3CCN(S(=O)(=O)CC)CC3=O)cc2n1`, in that order: 4.4 nM and 10.
In the same order, the values of `C=CC(=O)N1CCN(Cc2cc3nc(-n4c(CC)nc5ccccc54)nc(N4CCOCC4)c3s2)C(=O)C1` are 2.9 nM and 43.
In turn, `CCc1nc2ccccc2n1-c1nc(N2CCOCC2)c2sc(CN3CCN(C4CCC(O)CC4)C(=O)C3)cc2n1` (stereo not drawn) displayed a 50% inhibitory concentration (IC50) in [1] of 5.7 nM. For the same molecule, the Ratio IC50 in assay [2] is 7.7.
In the same order, the values of `CCc1nc2ccccc2n1-c1nc(N2CCOCC2)c2sc(CN3CCN(C(=O)C4CCCCC4)CC3=O)cc2n1` are 7.9 nM and 43.
For `CCc1nc2ccccc2n1-c1nc(N2CCOCC2)c2sc(CN3CCN(C(C)C)CC3=O)cc2n1`, in that order: 2.1 nM and 53.
In the same order, the values of `CCc1nc2ccccc2n1-c1nc(N2CCOCC2)c2sc(CN3CCN(CC)C(=O)C3)cc2n1` are 4.1 nM and 10.
`CCc1nc2ccccc2n1-c1nc(N2CCOCC2)c2sc(CN3CCN(C)C(=O)C3)cc2n1` yielded a concentration for half-maximal inhibition (IC50) in [1] of 4.9 nM. In addition, the Ratio IC50 in assay [2] was 53.
For `CCc1nc2ccccc2n1-c1nc(N2CCOCC2)c2sc(CN3CCN(CC(F)(F)F)CC3=O)cc2n1`, in that order: 6.3 nM and 32.
In the same order, the values of `CCc1nc2ccccc2n1-c1nc(N2CCOCC2)c2sc(CN3CCN(CC(=O)N4CCOCC4)C(=O)C3)cc2n1` are 15 nM and 11.
In the same order, the values of `CCc1nc2ccccc2n1-c1nc(N2CCOCC2)c2sc(CN3CCNC(=O)C3)cc2n1` are 20 nM and 13.
